Four molecules from patent publication US20160339022A1, “TREATMENT OF NEUROBLASTOMA WITH HISTONE DEACETYLASE INHIBITORS” (Acetylon Pharmaceuticals Inc., priority 2015, published 2016) can be followed below.

Structures are written as SMILES.

In data set [1] the test system is retinoic acid receptor (RAR). Kind of data set: Retinoic acid receptor ChIP-seq. The class given is cell-based. The following applies: 3 μM Compound B, 48 hours. The source says: Retinoic acid receptor active binding sites defined in any individual treatment group by ChIP-seq at 48 hrs after treatment were stacked (y-axis) and aligned to the center of the binding peak (x-axis) (FIG. 13). […] Many of the genes found near region 1 binding sites are involved in regulation of retinoid signaling and are transcription factors that drive differentiation (Table 10).
Regions 1-7 of FIG. 13 are defined relative to DMSO: 1, [Combo] Increased; 2, [ATRA] Increased; 3, [ATRA] [Combo] Increased; 4, [Combo] [ATRA] [Compound B] Increased; 5, [Combo] [ATRA] Decreased; 6, [Compound B] Decreased; and 7, [Compound B] [Combo] [ATRA] Decreased.
Neuroblastoma cell line SK-N-BE(2) cells were treated with 3 μM Compound B, 1 μM ATRA, or a combination of both at 37° C. over 48 hours and compared to the solvent (DMSO) control. Antibodies to pan-retinoic acid receptor were used to pull down DNA associated with the receptor binding and sequenced. Lists of binding regions were mapped to the chromosome and “associated” with a given gene if the binding region was located within 10,000 bp up- or down-stream of the gene in question. Binding regions were represented as a heatmap where the sites were stacked on the y-axis across treatments, the “0” mark on the x-axis is the center of the binding peak and the intensity of signal indicated by color. The bracketed regions are areas of statistical significance relative to the DMSO control as indicated on the plot.
Table 12 lists the genes returned when the following conditions are met: 1) combo peak height >4 fold relative to the DMSO control group, and 2) combo expression >4 fold relative to the DMSO control group.

Data set [2] deals with SK-N-BE2 cells. Kind of data set: Levels of proteins related to cell-cycle progression. The class given is cell-based. The following applies: 3 days in culture. On the procedure: The levels of proteins related to cell-cycle progression were assessed following treatment (SK-N-BE2 cells; 3 days in culture) with DMSO (control), Compound B alone, ATRA alone, and Compound B in combination with ATRA. p21 is increased by ATRA and enhanced by Compound B. Cyclin D1 is decreased in the combination setting relative to ATRA as a single agent. CDK2 and CDK4 are decreased in the combination setting with Compound B and ATRA.

Data set [3] relates to neuroblastoma cells. The following applies: MTS assay, FIGS. 27 and 28.
Protocol: Viable cells were measured in an MTS assay and the combination index (CI) was calculated using the Chou-Talaay method.
Data set [4] relates to neuroblastoma cells. Kind of data set: Morphology changes / dendrite outgrowth by inverted microscope. The class given is cell-based. The following applies: 3, 5 and 7 days.
Protocol: Cells were cultured for 3, 5, and 7 days with the indicated treatments. Images were captured on an inverted microscope.
Data set [5] relates to AKT and c-RAF. The data set is described as follows: Levels of AKT and c-RAF. The class given is cell-based. The following applies: SK-N-BE2 cells; 3 days in culture. On the procedure:
The levels of AKT and c-RAF were assessed following treatment (SK-N-BE2 cells; 3 days in culture) with DMSO (control), Compound B alone, ATRA alone, and Compound B in combination with ATRA. Activated AKT is increased by ATRA and reduced in the combination setting with Compound B. Compound B as a single agent, and in combination with ATRA, decreases cRAF phosphorylation at residue Ser259.

Data set [6] has as its system neuroblastoma cells. The data set is described as follows: Cell cycle analysis (Click-iT EdU and FxCycle PI/RNase staining). It counts as cell-based. The following applies: 7 days. On the procedure: Cells were cultured for 7 days with the indicated treatments and then stained with the Invitrogen Click-iT EdU kit and the Invitrogen FxCycle […] kits to assess frequency of cells in each stage of the cell cycle. […] The effect is enhanced by Compound B in a dose dependent manner.
In combination with ATRA, the effect on p21 is enhanced at concentrations that induce gene expression changes consistent with differentiation. At 7 days of treatment, combination effects are observed on the cell cycle, with a decreasing frequency of s-phase cells and an increasing sub-G1 population (FIG. 6B). […] EDU is increased in cells in s-phase while PI intensity indicates relative levels of DNA. Using these metrics, we illustrate the frequency of cells in the indicated states of the cell cycle.

Data set [7] has as its system SK-N-BE(2) cells. Kind of data set: Cell viability (Promega CellTiter Glo assay). It counts as cell-based. The protocol: (§1) Cells were cultured for 48 hours at the indicated concentration of drug, and then cell viability was measured by Promega CellTiter Glo assay and caspase activity was measured by Promega Caspase3/7 Glo assay. […] Anti-tumor activity is evident at 3 μM of treatment.

Data set [8] has as its system SK-N-BE(2) cells. Kind of data set: Microarray gene expression and gene set enrichment analysis. The class given is cell-based, Homo sapiens. The following applies: 3 μM Compound B, 1 μM ATRA or combination, microarray 48 hr, fold relative to the DMSO control group. The protocol: Gene expression from cells treated with ATRA single agent and combination of ATRA and HDAC1/2i were assessed at 2 hrs and 48 hrs of treatment (FIG. 12A). […] A function analysis of the data using the Ingenuity IPA platform was performed by Qiagen; overlap is observed in the top hits between treatment groups.
Genes that statistically increase over 2-fold relative to the DMSO control were mapped on a Venn diagram (FIG. 12B).
Neuroblastoma cell line SK-N-BE(2) cells were treated with 3 μM Compound B, 1 μM ATRA, or a combination of both at 37° C. over 2 hours (FIG. 12A) or 48 hours (FIG. 12B) and compared to the solvent (DMSO) control.

The test system of data set [9] is neuroblastoma cells. Kind of data set: Neuroblastoma proliferation, manual cell counts over 7 days. The class given is cell-based. The following applies: 0.75 μM and 2 μM, counted at days 3, 5 and 7. The protocol: Cells were cultured over a 7 day period and manually counted at days 3, 5, and 7.
In data set [10] the test system is SK-N-BE(2) cells. The data set is described as follows: Caspase activity (Promega Caspase3/7 Glo assay). The class given is cell-based. The following applies: 1 μM, 48 hours. On the procedure: as §1
Data set [11] concerns the target HDAC1 (Homo sapiens, UniProt Q13547). Kind of data set: Biochemical activity of isoform-selective HDAC inhibitors, HDAC1. The following applies: biochemical assay.
The subject of data set [12] is neuroblastoma cells. The data set is described as follows: Long term growth assay (15, 20, 25 days, Crystal Violet). It counts as cell-based. The following applies: 1 μM of exposure, single agent; FIG. 11. On the procedure: Cells were cultured for 15, 20 or 25 days with the indicated treatments. Cells were imaged on an inverted microscope at days 15 and 20. On day 25, the cells were stained with Crystal Violet dye and imaged by cell phone camera Importantly, the combination of ATRA and Compound B suppressed the growth of ATRA-resistant colonies.
Cells were cultured for 15, 20 or 25 days with the indicated treatments. Cells were imaged on an inverted microscope at days 15 and 20. On day 25, the cells were stained with Crystal Violet dye and imaged.
Cells were cultured for 15, 20 or 25 days with the indicated treatments. Cells were imaged on an inverted microscope at days 15 and 20. On day 25, the cells were stained with Crystal Violet dye and imaged. It was observed that the combination activity is mediated by HDAC1/2i.
Neuroblastoma cells were treated with Compound B or the HDAC3-selective inhibitor Compound C in a long term growth assay.

For data set [13], the target named is HDAC2 (Homo sapiens, UniProt Q92769). Kind of data set: Biochemical activity of isoform-selective HDAC inhibitors, HDAC2. The following applies: biochemical assay.
Chain of HDAC2 (Q92769 whole entry, canonical isoform): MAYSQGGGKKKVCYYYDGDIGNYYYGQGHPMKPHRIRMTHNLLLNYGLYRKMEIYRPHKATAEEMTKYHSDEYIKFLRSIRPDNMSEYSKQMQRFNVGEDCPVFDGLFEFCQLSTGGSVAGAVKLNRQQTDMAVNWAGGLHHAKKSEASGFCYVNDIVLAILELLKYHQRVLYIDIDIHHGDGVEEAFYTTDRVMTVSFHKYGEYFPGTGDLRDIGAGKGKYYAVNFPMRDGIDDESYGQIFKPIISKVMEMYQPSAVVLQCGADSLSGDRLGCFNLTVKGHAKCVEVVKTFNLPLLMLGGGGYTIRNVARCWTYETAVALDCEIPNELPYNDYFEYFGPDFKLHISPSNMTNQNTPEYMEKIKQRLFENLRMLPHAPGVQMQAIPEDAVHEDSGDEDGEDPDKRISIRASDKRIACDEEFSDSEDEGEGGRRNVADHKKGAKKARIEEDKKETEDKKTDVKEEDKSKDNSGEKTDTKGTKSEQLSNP
Data set [14] deals with IMR-32 tumors. Kind of data set: IMR-32 neuroblastoma tumor growth in NUDE mice. The class given is in vivo. The following applies: IMR-32 tumors in NUDE mice, orally once daily, 5/2 on/off schedule. On the procedure:
IMR-32 tumors were implanted in NUDE mice and Compound E and retinoic acid was administered orally once daily at the indicated doses on a 5/2 on/off schedule.

[15] abbreviates: SK-N-BE(2) cells, 1 μM ATRA or combination, fold relative to the DMSO control group.

Chain of HDAC1 (Q13547 whole entry, canonical isoform): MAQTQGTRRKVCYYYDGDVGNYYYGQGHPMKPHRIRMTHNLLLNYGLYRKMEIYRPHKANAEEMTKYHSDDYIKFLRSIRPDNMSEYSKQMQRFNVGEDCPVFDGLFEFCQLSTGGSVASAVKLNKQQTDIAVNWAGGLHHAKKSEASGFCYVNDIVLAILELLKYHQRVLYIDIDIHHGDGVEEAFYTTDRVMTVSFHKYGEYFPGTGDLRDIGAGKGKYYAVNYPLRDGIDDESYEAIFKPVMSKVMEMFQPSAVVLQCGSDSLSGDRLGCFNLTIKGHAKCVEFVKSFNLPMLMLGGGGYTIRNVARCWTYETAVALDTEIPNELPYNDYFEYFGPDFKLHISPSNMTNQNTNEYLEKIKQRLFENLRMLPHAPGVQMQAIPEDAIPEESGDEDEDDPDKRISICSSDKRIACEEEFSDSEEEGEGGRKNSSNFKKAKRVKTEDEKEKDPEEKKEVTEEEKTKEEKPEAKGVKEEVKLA

As to `CC1=C(/C=C/C(C)=C/C=C/C(C)=C/C(=O)O)C(C)(C)CCC1` [ATRA, all-trans-retinoic acid, reference compound], in data set [1] (setting [15]), the “RAR Binding (Peak Height), ACSL3” value was 1.00; the “RAR Binding (Peak Height), ATP7A” value was found to be 4.60; the “RAR Binding (Peak Height), CDKN1A” value was found to be 4.75; the “RAR Binding (Peak Height), CRABP2” value came to 3.15. For the same molecule, in [1] (setting [15]), the “RAR Binding (Peak Height), CTSH” value is reported as 5.42; the “RAR Binding (Peak Height), CYP26A1” value was 7.00; the “RAR Binding (Peak Height), CYP26B1” value worked out at 11.50; the “RAR Binding (Peak Height), DHRS3” value is recorded as 7.50. In addition, in [1] (setting [15]), the “RAR Binding (Peak Height), DUSP6” value is 4.00; the “RAR Binding (Peak Height), ETS1” value came out at 3.99; the “RAR Binding (Peak Height), HSPA5” value is 2.00; the “RAR Binding (Peak Height), IER3” value came to 6.83. Besides, in data set [1] (setting [15]), the “RAR Binding (Peak Height), NFKBIZ” value is listed as 4.00; the “RAR Binding (Peak Height), PCDH18” value stood at 3.50; the “RAR Binding (Peak Height), PTGER2” value turned out to be 2.13; the “RAR Binding (Peak Height), RARB” value stood at 2.20. Besides, the “RAR Binding (Peak Height), RET” value in [1] (setting [15]) is recorded as 8.86. Also, in data set [1] (SK-N-BE(2), 1 μM ATRA, vs DMSO), the “RAR binding to chromatin” value is reported as “increased RAR binding”. In addition, the p21 level result in data set [2] was “increased”. Moreover, the “cytotoxic effect on neuroblastoma cells as a single agent” value in [3] was “has a cytotoxic effect”. In addition, the “morphology / dendrite outgrowth” value in data set [4] is recorded as “caused the outgrowth of dendrites over time”. In data set [5], the “activated AKT” value is “increased”. Besides, the “cell cycle stage frequency, single agent” value in data set [6] is “reduces s-phase frequency and increases the sub-G1 population”. The “effect of added ATRA on HDAC1/2i mediated toxicity” value in data set [7] (addition of 1 μM or 3 μM of ATRA to Compound B, FIG. 2A) is “little effect”. Also, in data set [8], the “Gene Expression Change, ACSL3” value amounted to 1.68; the “Gene Expression Change, ATP7A” value was 4.30; the “Gene Expression Change, CDKN1A” value worked out at 1.25; the “Gene Expression Change, CRABP2” value is listed as 12.15. Also, in data set [8], the “Gene Expression Change, CTSH” value worked out at 2.40; the “Gene Expression Change, CYP26A1” value is 7.84; the “Gene Expression Change, CYP26B1” value was 116.67; the “Gene Expression Change, DHRS3” value was 24.14. Further, in data set [8], the “Gene Expression Change, DUSP6” value turned out to be 8.59; the “Gene Expression Change, ETS1” value was found to be 3.50; the “Gene Expression Change, HSPA5” value came out at 1.48; the “Gene Expression Change, IER3” value came out at 3.75. In [8], the “Gene Expression Change, NFKBIZ” value was determined as 2.85; the “Gene Expression Change, PCDH18” value turned out to be 3.98; the “Gene Expression Change, PTGER2” value was 2.48; the “Gene Expression Change, RARB” value was 3.91. Moreover, the “Gene Expression Change, RET” value in [8] stood at 10.78.
On to `O=C(CCCCCCNC(=O)c1cnc(N(c2ccccc2)c2ccccc2Cl)nc1)NO` [Compound A, 2-((2-chlorophenyl)(phenyl)amino)-N-(7-(hydroxyamino)-7-oxoheptyl)pyrimidine-5-carboxamide], for which the “cytotoxic effect on neuroblastoma cells as a single agent” value in data set [3] was “has a cytotoxic effect”. For the same molecule, the “proliferation, single agent” value in data set [9] is “can suppress proliferation similar to ATRA”. In data set [7] (1 μM, 48 hours), the cell death entry is on record as “Minimal”. Besides, in [7] (3 μM, 48 hours), the anti-tumor activity result is listed as “evident”. The “caspase 3/7 induction” value in data set [10] is on record as “Minimal”.
Consider `Nc1cc(F)ccc1NC(=O)c1cnc2c(C3CC3)c(N3CCNCC3)ccc2c1` [Compound C, N-(2-amino-4-fluorophenyl)-8-cyclopropyl-7-(piperazin-1-yl)quinoline-3-carboxamide], for which the figures for the IC50 in [11] and in data set [13] were 2000 nM and 619 nM, respectively. Moreover, in [12], the “neuroblastoma cell growth in long term growth assay” value is “required higher concentrations to mediate a similar effect”.
Consider `Nc1ccc(-c2cccs2)cc1NC(=O)c1ccc2nc(N3CCNCC3)ccc2c1` [Compound E], for which the tumor growth entry in data set [14] is given as “dose-dependent trend toward reduced tumor growth”.
